Source: ChEMBL document CHEMBL5247680, “Design, Synthesis, and Biological Activity of Thioguanine-Modified Pleuromutilin Derivatives” (ACS Med Chem Lett, 2023)
Values after ≈ are worked out from the molar mass of the structure shown.

Legend:
[1] = test system: Staphylococcus epidermidis; test: Selectivity ratio of MBC for antibacterial activity against Methicillin-sensitive Staphylococcus epidermidis […] to MIC for antibacterial activity against Methicillin-sensitive Staphylococcus epidermidis […]; format: functional
[2] = test system: Staphylococcus aureus; test: Antibacterial activity against Methicillin-resistant Staphylococcus aureus ATCC 33591 assessed as bacterial growth inhibition incubated for 20 to 24 hrs by microbroth serial dilution assay; format: functional; conditions: time 20-24 hrs
[3] = test system: Staphylococcus aureus; test: Antibacterial activity against Methicillin-resistant Staphylococcus aureus ATCC 43300 assessed as bacterial growth inhibition incubated for 20 to 24 hrs by microbroth serial dilution assay; format: functional; conditions: time 20-24 hrs
[4] = test system: Staphylococcus epidermidis; test: Antibacterial activity against Methicillin-resistant Staphylococcus epidermidis ATCC 51625 assessed as bacterial growth inhibition incubated for 20 to 24 hrs by microbroth serial dilution assay; format: functional; conditions: time 20-24 hrs
[5] = test system: Staphylococcus aureus; test: Antibacterial activity against Methicillin-sensitive Staphylococcus aureus ATCC 29213 assessed as bacterial growth inhibition incubated for 20 to 24 hrs by microbroth serial dilution assay
[6] = test system: Staphylococcus aureus; test: Antibacterial activity against Staphylococcus aureus ATCC 25923 assessed as bacterial growth inhibition incubated for 20 to 24 hrs by microbroth serial dilution assay; format: functional; conditions: time 20-24 hrs
[7] = test system: Staphylococcus aureus; test: Selectivity ratio of MBC for antibacterial activity against Staphylococcus aureus to MIC for antibacterial activity against Staphylococcus aureus; format: functional
[8] = test system: Staphylococcus epidermidis; test: Antibacterial activity against Methicillin-sensitive Staphylococcus epidermidis ATCC 12228 assessed as bacterial growth inhibition incubated for 20 to 24 hrs by microbroth serial dilution assay; format: functional; conditions: time 20-24 hrs
[9] = test system: Staphylococcus aureus; test: Selectivity ratio of MBC for antibacterial activity against Methicillin-sensitive Staphylococcus aureus ATCC 29213 to MIC for antibacterial activity against Methicillin-sensitive Staphylococcus aureus ATCC 29213

Compound | Ratio [1] | MIC [2] [µg/mL] | MIC [3] [µg/mL] | MIC [4] [µg/mL] | MIC [5] [µg/mL] | MIC [6] [µg/mL] | Ratio [7] | MIC [8] [µg/mL] | Ratio [9]
C=C[C@]1(C)C[C@@H](OC(=O)CSc2nc(NC(=O)CN3CCC(O)CC3)nc3[nH]cnc23)[C@@]2(C)C3C(=O)CC[C@@]3(CC[C@H]2C)[C@@H](C)[C@@H]1O (stereo partly drawn) | >4 | 16 (≈ 23.9 µM) | 32 (≈ 47.8 µM) | 2 (≈ 2.99 µM) | 16 (≈ 23.9 µM) | 16 (≈ 23.9 µM) | >4 | 2 (≈ 2.99 µM) | 
C=C[C@]1(C)C[C@@H](OC(=O)CSc2nc(N)nc3c2ncn3C(=O)NCc2ccccc2)[C@@]2(C)C3C(=O)CC[C@@]3(CC[C@H]2C)[C@@H](C)[C@@H]1O (stereo partly drawn) | >4 | 0.0312 (≈ 0.0473 µM) | 0.0625 (≈ 0.0946 µM) | 0.0625 (≈ 0.0946 µM) | 0.0625 (≈ 0.0946 µM) | 0.0312 (≈ 0.0473 µM) | >4 | < 0.0078 | 
C=C[C@]1(C)C[C@@H](OC(=O)CSc2nc(N)nc3c2ncn3C(=O)NCc2cccc([N+](=O)[O-])c2)[C@@]2(C)C3C(=O)CC[C@@]3(CC[C@H]2C)[C@@H](C)[C@@H]1O (stereo partly drawn) | >4 | 0.0312 (≈ 0.0443 µM) | 0.0625 (≈ 0.0885 µM) | 0.0625 (≈ 0.0885 µM) | 0.0625 (≈ 0.0885 µM) | 0.0625 (≈ 0.0885 µM) | >4 | < 0.0078 | 4
C=C[C@]1(C)C[C@@H](OC(=O)CSc2nc(N)nc3c2ncn3C(=O)NCCc2ccccc2)[C@@]2(C)C3C(=O)CC[C@@]3(CC[C@H]2C)[C@@H](C)[C@@H]1O (stereo partly drawn) |  |  |  |  |  |  |  | < 0.0078 | 
C=C[C@]1(C)C[C@@H](OC(=O)CSc2nc(NC(=O)CN3CCCCC3)nc3[nH]cnc23)[C@@]2(C)C3C(=O)CC[C@@]3(CC[C@H]2C)[C@@H](C)[C@@H]1O (stereo partly drawn) | >4 | 0.125 (≈ 0.191 µM) | 0.125 (≈ 0.191 µM) | 0.5 (≈ 0.766 µM) | 0.25 (≈ 0.383 µM) | 0.0625 (≈ 0.0957 µM) | >4 | 0.5 (≈ 0.766 µM) | 
C=C[C@]1(C)C[C@@H](OC(=O)CSc2nc(NC(=O)CN3CCNCC3)nc3[nH]cnc23)[C@@]2(C)C3C(=O)CC[C@@]3(CC[C@H]2C)[C@@H](C)[C@@H]1O (stereo partly drawn) | >4 | 32 (≈ 48.9 µM) | 64 (≈ 97.9 µM) | 16 (≈ 24.5 µM) | 32 (≈ 48.9 µM) | 32 (≈ 48.9 µM) | >4 | 4 (≈ 6.12 µM) | 
C=C[C@]1(C)C[C@@H](OC(=O)CSc2nc(NC(=O)CNC3CCOCC3)nc3[nH]cnc23)[C@@]2(C)C3C(=O)CC[C@@]3(CC[C@H]2C)[C@@H](C)[C@@H]1O (stereo partly drawn) | >4 | 0.5 (≈ 0.748 µM) | 16 (≈ 23.9 µM) | 1 (≈ 1.5 µM) | 8 (≈ 12 µM) | 0.5 (≈ 0.748 µM) | >4 | 2 (≈ 2.99 µM) | 
C=C[C@]1(C)C[C@@H](OC(=O)CSc2nc(N)nc3c2ncn3C(=O)Nc2ccccc2OC)[C@@]2(C)C3C(=O)CC[C@@]3(CC[C@H]2C)[C@@H](C)[C@@H]1O (stereo partly drawn) | >4 | 0.125 (≈ 0.185 µM) | 0.25 (≈ 0.369 µM) | 0.125 (≈ 0.185 µM) | 0.125 (≈ 0.185 µM) | 0.25 (≈ 0.369 µM) | >4 | 0.0156 (≈ 0.023 µM) | 2
C=C[C@]1(C)C[C@@H](OC(=O)CSc2nc(N)nc3c2ncn3C(=O)c2ccc([N+](=O)[O-])cc2)[C@@]2(C)C3C(=O)CC[C@@]3(CC[C@H]2C)[C@@H](C)[C@@H]1O (stereo partly drawn) | >4 | 0.125 (≈ 0.185 µM) | 0.0625 (≈ 0.0923 µM) | 0.0625 (≈ 0.0923 µM) | 0.0625 (≈ 0.0923 µM) | 0.125 (≈ 0.185 µM) | >4 | < 0.0078 | 
C=C[C@]1(C)C[C@@H](OC(=O)CSc2nc(N)nc3c2ncn3C(=O)CCc2ccccc2)[C@@]2(C)C3C(=O)CC[C@@]3(CC[C@H]2C)[C@@H](C)[C@@H]1O (stereo partly drawn) | >4 | 0.125 (≈ 0.189 µM) | 0.125 (≈ 0.189 µM) | 0.125 (≈ 0.189 µM) | 0.125 (≈ 0.189 µM) | 0.25 (≈ 0.379 µM) | 4 | 0.0156 (≈ 0.0236 µM) | >4
C=C[C@]1(C)C[C@@H](OC(=O)CSc2nc(N)nc3c2ncn3C(=O)Nc2ccccc2Cl)[C@@]2(C)C3C(=O)CC[C@@]3(CC[C@H]2C)[C@@H](C)[C@@H]1O (stereo partly drawn) | >4 | 0.125 (≈ 0.183 µM) | 0.125 (≈ 0.183 µM) | 0.0625 (≈ 0.0917 µM) | 0.25 (≈ 0.367 µM) | 0.125 (≈ 0.183 µM) | >4 | 0.0078 (≈ 0.0114 µM) | 4
C=C[C@]1(C)C[C@@H](OC(=O)CSc2nc(N)nc3c2ncn3C(=O)OC)[C@@]2(C)C3C(=O)CC[C@@]3(CC[C@H]2C)[C@@H](C)[C@@H]1O (stereo partly drawn) | >4 | 0.125 (≈ 0.213 µM) | 0.125 (≈ 0.213 µM) | 0.125 (≈ 0.213 µM) | 0.5 (≈ 0.854 µM) | 0.125 (≈ 0.213 µM) | >4 | 0.0625 (≈ 0.107 µM) | 
